The text below walks through data of patent US12209072B2, “Cyclopentyl acids as LPA antagonists” (BRISTOL-MYERS SQUIBB COMPANY, priority 2018, dated 2025).

This test deals with T1, human LPA1 (Homo sapiens, UniProt Q92633).
T1 construct: expressed in transfected cells; host or cells: Chinese hamster ovary (CHO) cells
The test can be described thus: LPA1 functional antagonist assay (LPA-induced calcium flux). The format is cell-based. The note with it: CHO cells overexpressing human LPA1; inhibition of calcium flux induced by 10 nM LPA; read-out: hLPA1 IC50. The method, then: The effectiveness of compounds of the present invention as LPA1 inhibitors can be determined in an LPA1 functional antagonist assay as follows:
Chinese hamster ovary cells overexpressing human LPA1 were plated overnight (15,000 cells/well) in poly-D-lysine coated 384-well microplates (Greiner bio-one, Cat #781946) in DMEM/F12 medium (Gibco, Cat #11039). Following overnight culture, cells were loaded with calcium indicator dye (AAT Bioquest Inc, Cat #34601) for 30 minutes at 37° C. The cells were then equilibrated to room temperature for 30 minutes before the assay. Test compounds solubilized in DMSO were transferred to 384 well non-binding surface plates (Corning, Cat #3575) using the Labcyte Echo acoustic dispense and diluted with assay buffer [1×HBSS with calcium/magnesium (Gibco Cat #14025-092), 20 mM HEPES (Gibco Cat #15630-080) and 0.1% fatty acid free BSA (Sigma Cat #A9205)] to a final concentration of 0.5% DMSO. Diluted compounds were added to the cells by FDSS6000 (Hamamatsu) at final concentrations ranging from 0.08 nM to 5 μM. and were then incubated for 20 min at room temperature at which time LPA (Avanti Polar Lipids Cat #857130C) was added at final concentrations of 10 nM to stimulate the cells. The compound IC50 value was defined as the concentration of test compound which inhibited 50% of the calcium flux induced by LPA alone. IC50 values were determined by fitting data to a 4-parameter logistic equation (GraphPad Prism, San Diego CA).
(In general: Calcium assays in cells follow changes in intracellular calcium, usually with a dye or a luminescent sensor.)

T1 sequence (Q92633 whole entry): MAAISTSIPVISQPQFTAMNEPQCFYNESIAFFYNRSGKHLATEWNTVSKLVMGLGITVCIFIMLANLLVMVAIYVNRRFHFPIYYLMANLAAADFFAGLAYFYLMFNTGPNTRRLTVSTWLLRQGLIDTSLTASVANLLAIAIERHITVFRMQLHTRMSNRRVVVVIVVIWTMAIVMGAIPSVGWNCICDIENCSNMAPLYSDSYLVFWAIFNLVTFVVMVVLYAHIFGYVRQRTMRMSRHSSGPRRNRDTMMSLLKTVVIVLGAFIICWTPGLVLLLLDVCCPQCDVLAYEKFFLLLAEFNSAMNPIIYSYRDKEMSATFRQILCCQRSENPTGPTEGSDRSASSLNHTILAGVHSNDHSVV

For `CCCN(C)C(=O)OCc1c(-c2ccc(O[C@H]3CC[C@H](CC(=O)O)C3)c(C)n2)nnn1C` (racemic) [Example 54, (±)-trans-2-[3-({2-methyl-6-[1-methyl-5-({[methyl(propyl)carba-moyl]oxy}methyl)-1H-1,2,3-triazol-4-yl]pyridin-3-yl}oxy)cyclopentyl]acetic acid], the IC50 came to 0.292 µM.
Regarding `Cc1nc(-c2cnn(C)c2CNC(=O)OCc2ccccc2)cnc1O[C@H]1CC[C@H](C(=O)O)C1` (racemic) [Example 18, (±)-Trans-3-((5-(5-((((benzyloxy)carbonyl)amino)methyl)-1-methyl-1H-pyrazol-4-yl)-3-methylpyrazin-2-yl)oxy)cyclopentanecarboxylic Acid], the IC50 was 0.369 µM.
Consider `Cc1nc(-c2nnn(C)c2COC(=O)N(C)CCCF)ccc1O[C@H]1CC[C@H](CC(=O)O)C1` (racemic) [Example 65, (±)-trans-2-[3-({6-[5-({[(3-fluoro-propyl)(methyl)carbamoyl]oxy}methyl)-1-methyl-1H-1,2,3-triazol-4-yl]-2-methylpyridin-3-yl}oxy)cyclo-pentyl]acetic acid], for which the IC50 came out at 0.944 µM.
As to `Cc1nc(-c2onc(C)c2COC(=O)N(C)C2CCCC2)ccc1O[C@H]1CC[C@@H](C(=O)O)C1` (racemic) [Example 76, (±)-cis-3-({6-[4-({[cyclopentyl(methyl)carbamoyl]oxy}methyl)-3-methyl-1,2-oxazol-5-yl]-2-methyl-pyridin-3-yl}oxy)cyclopentane-1-carboxylic acid], the IC50 was 0.04 µM.
Under `Cc1nc(-c2onc(C)c2CNc2nccc(-c3ccccn3)n2)ccc1OC[C@@H]1CC[C@H](C(=O)O)C1` (relative stereo) [Example 35, cis-3-(((2-methyl-6-(3-methyl-4-(((4-(pyridin-2-yl)pyrimidin-2-yl)amino)methyl)isoxazol-5-yl)pyridin-3-yl)oxy)methyl)cyclopentane-1-carboxylic acid] stands 0.009 µM; under `Cc1nc(-c2nnn(C)c2COC(=O)N(C)CC2CCC2)ccc1OC[C@@H]1CC[C@H](C(=O)O)C1` (racemic) [Example 30, (±)-Cis-3-(((6-(5-((((cyclobutylmethyl)(methyl)carbamoyl)oxy)methyl)-1-methyl-1H-1,2,3-triazol-4-yl)-2-methylpyridin-3-yl)oxy)methyl)cyclopentane-1-carboxylic Acid], 0.021 µM.
Under `Cc1nc(-c2nnn(C)c2COC(=O)N(C)CC2CCCC2)cnc1O[C@@H]1CC[C@@H](C(=O)O)C1` (racemic) [Example 14, (±)-trans-3-((5-(5-((((cyclo-pentylmethyl)(methyl)carbamoyl)oxy)methyl)-1-methyl-1H-1,2,3-triazol-4-yl)-3-methylpyrazin-2-yl)oxy) cyclopentanecarboxylic Acid] stands 0.184 µM; under `Cc1nc(-c2nnn(C)c2COC(=O)N(C)CC(C)C)ccc1O[C@@H]1CC[C@@H](C(=O)O)C1` (racemic) [Example 24, (±)-trans-3-((6-(5-(((isobutyl(methyl)carbamoyl)oxy)methyl)-1-methyl-1H-1,2,3-triazol-4-yl)-2-methylpyridin-3-yl)oxy)cyclopentane carboxylic acid], 1.16 µM; under `Cc1noc(-c2ccc(OC3CCC(C(=O)O)C3)cn2)c1CNc1nccc(-c2ccccc2)n1` (single isomer, unassigned) [Example 44], 0.158 µM.
Consider `Cc1nc(-c2nnn(C)c2COC(=O)N(C)C2CCCC2)c(F)cc1O[C@H]1CC[C@H](CC(=O)O)C1` (racemic) [Example 69, (±)-trans-2-[3-({6-[5-({[cyclopentyl(methyl)carbamoyl]oxy}methyl)-1-methyl-1H-1,2,3-triazol-4-yl]-5-fluoro-2-methylpyridin-3-yl}oxy)cyclopentyl]acetic acid], for which the IC50 was found to be 0.21 µM.
On to `Cc1nc(-c2nnn(C)c2COC(=O)N2CCC3(CC3)C2)ccc1O[C@H]1CC[C@H](CC(=O)O)C1` (racemic) [Example 67, (±)-trans-2-[3-({6-[5-({5-azaspiro[2.4]heptane-5-carbonyloxy}methyl)-1-methyl-1H-1,2,3-triazol-4-yl]-2-methylpyridin-3-yl}oxy)cyclopentyl]acetic acid], for which the IC50 came out at 0.77 µM.
On to `Cc1nc(-c2nnn(C)c2NC(=O)OCC2CC2)ccc1O[C@H]1CC[C@H](CC(=O)O)C1` (racemic) [Example 83, (±)-trans-2-[3-{[6-(5-{(cyclopropylmethoxy)carbonyl]amino}-1-methyl-1H-1,2,3-triazol-4-yl)-2-methyl-pyridin-3-yl]oxy}cyclopentyl]acetic acid], for which the IC50 amounted to 1.23 µM.
As to `Cc1nc(-c2nnn(C)c2CNC(=O)OCc2ccccc2)ccc1O[C@@H]1CC[C@@H](C(=O)O)C1` (single isomer, unassigned) [Example 21, Trans-3-((6-(5-((((benzyloxy)carbonyl)amino)methyl)-1-methyl-1H-1,2,3-triazol-4-yl)-2-methyl-pyridin-3-yl)oxy)cyclopentane carboxylic acid], the IC50 was 0.056 µM.
Consider `Cc1noc(-c2ccc(O[C@H]3CC[C@@H](C(=O)O)C3)cc2)c1COC(=O)N(C)CCC(C)C` (racemic) [Example 73, (±)-cis-3-{4-[3-methyl-4-({[methyl(3-methylbutyl)carbamoyl]oxy}methyl)-1,2-oxazol-5-yl]phenoxy}cyclo-pentane-1-carboxylic acid], for which the IC50 stood at 1.18 µM.
Regarding `Cc1nc(-c2nnn(C)c2COC(=O)N2CCC3(CCC3)C2)ccc1O[C@H]1CC[C@H](CC(=O)O)C1` (racemic) [Example 61, (±)-trans-2-[3-({6-[5-({6-azaspiro[3.4]octane-6-carbonyloxy}methyl)-1-methyl-1H-1,2,3-triazol-4-yl]-2-methylpyridin-3-yl}oxy)cyclopentyl]acetic acid], the IC50 is 0.444 µM.
On to `CCCC1(N(C)C(=O)OCc2c(-c3ccc(O[C@@H]4CC[C@@H](CC(=O)O)C4)c(C)n3)nnn2C)CC1` (racemic) [Example 10, (±)-Trans-2-(3-((2-methyl-6-(1-methyl-5-(((methyl(1-propylcyclopropyl)carbamoyl)oxy)methyl)-1H-1,2,3-triazol-4-yl)pyridin-3-yl)oxy)cyclopentyl)acetic Acid], for which the IC50 was determined as 0.372 µM.
As to `Cc1noc(-c2ccc(OC3CCC(C(=O)O)C3)cn2)c1CNc1nccc(-c2ccccc2)n1` (single isomer, unassigned) [Example 45], the IC50 was determined as 0.017 µM.
Take `Cc1nc(-c2nnn(C)c2CNc2nccc(C(C)C)n2)ccc1O[C@@H]1CC[C@@H](CC(=O)O)C1` (relative stereo) [Example 40, 2-(trans-3-((6-(5-(((4-isopropylpyrimidin-2-yl)amino)methyl)-1-methyl-1H-1,2,3-triazol-4-yl)-2-methylpyridin-3-yl)oxy)cyclopentyl)acetic acid]: the IC50 was 0.092 µM.
`Cc1nc(-c2onc(C)c2COC(=O)N(C)C2CCCC2)ccc1O[C@H]1CC[C@@H](CC(=O)O)C1` (racemic) [Example 47, (±)-cis-2-[3-({6-[4-({[cyclopentyl(methyl)carbamoyl]oxy}methyl)-3-methyl-1,2-oxazol-5-yl]-2-methyl-pyridin-3-yl}oxy)cyclopentyl]acetic acid]: the IC50 was found to be 0.025 µM.
As to `Cc1nc(-c2nnn(C)c2COC(=O)N(C)CC2CCC2)ccc1O[C@H]1CC[C@H](C(=O)O)C1` (single isomer, unassigned) [Example 79, Trans-(1,3)-3-({6-[5-({[(cyclobutyl-methyl) (methyl)carbamoyl]oxy}methyl)-1-methyl-1H-1,2,3-triazol-4-yl]-2-methylpyridin-3-yl}oxy)cyclo-pentane-1-carboxylic acid], the IC50 was 0.67 µM.
In the case of `CCc1nc(-c2nnn(C)c2COC(=O)N(C)CC2CCC2)ccc1O[C@@H]1CC[C@@H](CC(=O)O)C1` (racemic) [Example 87, (±)-2-((trans)-3-((6-(5-((((cyclo-butylmethyl)(methyl)carba-moyl)oxy)methyl)-1-methyl-1H-1,2,3-triazol-4-yl)-2-ethyl-pyridin-3-yl)oxy)cyclopentyl)acetic acid], the IC50 is 0.046 µM.
Take `CCCC1(COC(=O)NCc2c(-c3ccc(O[C@H]4CC[C@H](CC(=O)O)C4)c(C)n3)nnn2C)CCC1` (racemic) [Example 62, (±)-trans-2-[3-[(2-methyl-6-{1-methyl-5-[({[(1-propylcyclobutyl)methoxy]carbonyl}amino)methyl]-1H-1,2,3-triazol-4-yl}pyridin-3-yl)oxy]cyclo-pentyl]acetic acid]: the IC50 is 0.183 µM.
For the compound `Cc1noc(-c2ccc(O[C@@H]3CC[C@@H](C(=O)O)C3)cc2)c1COC(=O)N(C)C1CCCC1` (racemic) [Example 3, (±)-Trans-3-(4-(4-(((cyclopentyl(methyl)carbamoyl)oxy)methyl)-3-methylisoxazol-5-yl)phenoxy)cyclopentane-1-carboxylic Acid], the IC50 worked out at 0.171 µM.
`Cc1nc(-c2nnn(C)c2CNc2nccc(C(C)C)n2)ccc1OC[C@@H]1CC[C@H](C(=O)O)C1` (relative stereo) [Example 39, cis-3-(((6-(5-(((4-isopropylpyrimidin-2-yl)amino)methyl)-1-methyl-1H-1,2,3-triazol-4-yl)-2-methylpyridin-3-yl)oxy)methyl)cyclopentane-1-carboxylic acid]: the IC50 is 0.164 µM.

The IC50 is the concentration that gives 50% inhibition.
